Assay results as given in ChEMBL document CHEMBL1148457, “Comparative molecular active site analysis (CoMASA). 1. An approach to rapid evaluation of 3D QSAR” (J Med Chem, 2004).

target: T1, Corticosteroid-binding globulin (Homo sapiens, UniProt P08185); assay: Binding affinity to human CBG receptor (corticosteroid-binding globulins)
T1 sequence (P08185 whole entry): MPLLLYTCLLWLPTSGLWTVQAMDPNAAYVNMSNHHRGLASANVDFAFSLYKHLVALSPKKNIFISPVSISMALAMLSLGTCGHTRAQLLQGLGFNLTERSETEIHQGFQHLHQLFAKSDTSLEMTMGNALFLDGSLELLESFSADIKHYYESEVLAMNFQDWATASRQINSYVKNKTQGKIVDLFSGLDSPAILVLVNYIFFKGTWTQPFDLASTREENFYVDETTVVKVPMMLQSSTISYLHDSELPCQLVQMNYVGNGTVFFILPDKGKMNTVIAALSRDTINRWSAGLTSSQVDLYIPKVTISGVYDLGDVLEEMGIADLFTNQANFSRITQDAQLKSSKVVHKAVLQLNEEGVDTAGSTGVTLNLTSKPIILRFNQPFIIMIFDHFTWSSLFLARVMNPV

Question: For `CC(=O)[C@@]1(O)[C@H](O)C[C@H]2[C@@H]3CCC4=CC(=O)CC[C@]4(C)[C@H]3CC[C@@]21C`, which Ki is on record?
Answer: Its Ki is 0.562 µM.

Question: How did the Ki turn out when `CC(=O)[C@H]1CC[C@H]2[C@@H]3CCC4=CC(=O)CC[C@@H]4[C@H]3CC[C@]12C` was run?
Answer: Its Ki is 0.151 µM.

Question: With `CC(=O)[C@H]1CC[C@H]2[C@@H]3CCC4=CC(=O)CC[C@]4(C)[C@H]3C(=O)C[C@]12C` as the molecule, how does the Ki read?
Answer: Its Ki is 0.166 µM.

Question: `CC1C[C@@]2(C)C(=CC1=O)CC[C@@H]1[C@@H]2C(=O)C[C@@]2(C)[C@H]1CC[C@]2(O)C(=O)CO` (stereo partly specified) was tested. Which Ki did it give?
Answer: The Ki was 0.0204 µM.

Question: How did the Ki turn out when `CC(=O)C1CCC2C3C[C@H](C)C4=CC(=O)CCC4(C)C3CCC12C` (stereo partly specified) was run?
Answer: The Ki was 0.0759 µM.

Question: For `C[C@@H]1C[C@@]2(C)C(=CC1=O)CC[C@H]1[C@@H]3CC[C@](O)(C(=O)CO)[C@@]3(C)C[C@H](O)[C@@]12F`, which Ki is on record?
Answer: The Ki was 1.58 µM.

Question: Which Ki does the source give for `C[C@]12CCC(=O)C=C1CCC1[C@@H]2C(=O)C[C@@]2(C)[C@H]1CC[C@]2(O)C(=O)CO` (single isomer, unassigned) [CORTISONE] here?
Answer: Its Ki is 0.129 µM.

Question: For `C[C@]12C=CC(=O)C=C1CCC1[C@@H]2[C@@H](O)C[C@@]2(C)[C@H]1CC[C@]2(O)C(=O)CO` (single isomer, unassigned) [PREDNISOLONE], which Ki is on record?
Answer: Its Ki is 0.0309 µM.

Question: For `C[C@]12C[C@H](O)[C@H]3[C@@H](CCC4=CC(=O)CC[C@@]43C)[C@@H]1CC[C@@H]2C(=O)CO` (stereo in doubt; form 1) [CORTICOSTERONE], which Ki is on record?
Answer: Its Ki is 0.0631 µM.

Question: With `C[C@]12C[C@H](O)[C@H]3[C@@H](CCC4=CC(=O)CC[C@@]43C)[C@@H]1CC[C@@H]2C(=O)CO` (stereo in doubt; form 2) [CORTICOSTERONE] as the molecule, how does the Ki read?
Answer: The Ki was 0.0132 µM.

Question: How did the Ki turn out when `C[C@]12CCC(=O)C=C1CC[C@@H]1[C@@H]2[C@@H](O)C[C@]2(C=O)[C@@H](C(=O)CO)CC[C@@H]12` [ALDOSTERONE] was run?
Answer: Its Ki is 0.525 µM.

Question: `C[C@]12CC[C@H](O)C[C@@H]1CC[C@@H]1[C@@H]2CC[C@]2(C)[C@@H](O)CC[C@@H]12` [ANDROSTANEDIOL] was tested. Which Ki did it give?
Answer: Its Ki is 10 µM.

Question: For `C[C@]12CCC(=O)C=C1CC[C@@H]1[C@@H]2CC[C@]2(C)C(=O)CC[C@@H]12` [ANDROSTENEDIONE], which Ki is on record?
Answer: Its Ki is 1.74 µM.

Question: How did the Ki turn out when `C[C@]12CCC(=O)C=C1CC[C@@H]1[C@@H]2CC[C@@]2(C)[C@H]1CC[C@]2(O)C(=O)CO` [CORTODOXONE] was run?
Answer: Its Ki is 0.0132 µM.

Question: How did the Ki turn out when `C[C@]12CC[C@H]3[C@@H](CCC4=CC(=O)CC[C@@]43C)[C@@H]1CC[C@@H]2C(=O)CO` [DESOXYCORTICOSTERONE] was run?
Answer: The Ki was 0.0224 µM.

Question: How did the Ki turn out when `C[C@]12CC[C@@H]3c4ccc(O)cc4CC[C@H]3[C@@H]1CC[C@@H]2O` [ESTRADIOL] was run?
Answer: The Ki was 10 µM.

Question: For `C[C@]12CC[C@@H]3c4ccc(O)cc4CC[C@H]3[C@@H]1C[C@@H](O)[C@@H]2O` [ESTRIOL], which Ki is on record?
Answer: The Ki was 10 µM.

Question: Which Ki does the source give for `C[C@]12CC[C@@H]3c4ccc(O)cc4CC[C@H]3[C@@H]1CCC2=O` [ESTRONE] here?
Answer: Its Ki is 10 µM.

Question: For `CC(=O)OCC(=O)[C@@]1(O)CC[C@H]2[C@@H]3CCC4=CC(=O)CC[C@]4(C)[C@H]3[C@@H](O)C[C@@]21C` [HYDROCORTISONE ACETATE], which Ki is on record?
Answer: The Ki was 0.0282 µM.

Question: How did the Ki turn out when `CC(=O)[C@@]1(O)CC[C@H]2[C@@H]3CC[C@@H]4C[C@H](O)CC[C@]4(C)[C@H]3CC[C@@]21C` [HYDROXYPREGNENOLONE] was run?
Answer: Its Ki is 10 µM.

Question: For `CC(=O)[C@@]1(O)CC[C@H]2[C@@H]3CCC4=CC(=O)CC[C@]4(C)[C@H]3CC[C@@]21C` [HYDROXYPROGESTERONE], which Ki is on record?
Answer: Its Ki is 0.0182 µM.

Question: For `C[C@]12CC[C@H]3[C@@H](CCC4=CC(=O)CC[C@@H]43)[C@@H]1CC[C@@H]2O` [NANDROLONE], which Ki is on record?
Answer: The Ki was 0.724 µM.

Question: With `C[C@]12CC[C@H](O)CC1=CC[C@@H]1[C@@H]2CC[C@]2(C)C(=O)CC[C@@H]12` [PRASTERONE] as the molecule, how does the Ki read?
Answer: Its Ki is 10 µM.

Question: Which Ki does the source give for `CC(=O)[C@H]1CC[C@H]2[C@@H]3CC=C4C[C@@H](O)CC[C@]4(C)[C@H]3CC[C@]12C` [PREGNENOLONE] here?
Answer: The Ki was 5.89 µM.

Question: How did the Ki turn out when `CC(=O)[C@H]1CC[C@H]2[C@@H]3CCC4=CC(=O)CC[C@]4(C)[C@H]3CC[C@]12C` [PROGESTERONE] was run?
Answer: The Ki was 0.0417 µM.

Question: How did the Ki turn out when `C[C@]12CC[C@H]3[C@@H](CCC4=CC(=O)CC[C@@]43C)[C@@H]1CC[C@@H]2O` [TESTOSTERONE] was run?
Answer: The Ki was 0.191 µM.
